According to patent publication US11331271B2, “Buccal, sublingual and intranasal delivery of fospropofol” (The Johns Hopkins University, priority 2016, dated 2022):
“Also recorded” adds a separate entry of the source.

Test system: healthy male volunteers
Test: Human Study 1: treatment-emergent adverse events (TEAE), safety, Modified OAA/S
Assay type: in vivo
Protocol: In human study 1, fospropofol disodium was formulated as a sterile aqueous solution at a concentration of 20 mg/mL. Each vial provided contained 20 mL of solution, suitable for intravenous injection. Fospropofol was administered as a single dose of 400 mg orally, directly into the duodenum by gastroscopy or intravenously over 10 min. In human study 2, fospropofol disodium in capsules (200 mg) or matching placebo was administered orally.
The first study was an absolute bioavailability study of fospropofol conducted at a single center (PRA Health Sciences) in Groningen, Netherlands, as a three-way crossover study. The study enrolled 7 healthy male volunteers between 18 and 45 years of age inclusive, with a body mass index between 18 and 28 kg/m^2. Subjects stayed in the clinical unit for three consecutive periods of 3 days each, with a 3-day washout, between periods. For six subjects, the order of the administration routes was as follows—period 1: PO, period 2: ID, and period 3: IV. For one subject the order of the administration routes was the following—period 1: ID, period 2: IV and period 3: PO. In this study a single dose of 400 mg was administered by each route. Blinding and placebo control was impractical due to the requirement of unsedated endoscopic administration of fospropofol into the duodenum. Safety and overall pharmacodynamic effect was evaluated based on adverse events, vital signs, electrocardiogram (ECG), Modified Observer's Assessment of Alertness/Sedation (OAA/S) score, clinical laboratory tests, and physical examination.

CC(C)c1cccc(C(C)C)c1OCOP(=O)(O)O [fospropofol]
TEAE NERVOUS SYSTEM DISORDERS, events (E) (400 mg PO): 6 | TEAE NERVOUS SYSTEM DISORDERS, subjects (%) (400 mg PO): 57% | TEAE PSYCHIATRIC DISORDERS, events (E) (400 mg PO): 1 | TEAE PSYCHIATRIC DISORDERS, subjects (%) (400 mg PO): 14% | TEAE TOTAL, events (E) (400 mg PO): 8 | TEAE TOTAL, subjects (%) (400 mg PO): 86% | TEAE dizziness, events (E) (400 mg PO): 1 | TEAE dizziness, subjects (%) (400 mg PO): 14% | TEAE euphoric mood, events (E) (400 mg PO): 1 | TEAE euphoric mood, subjects (%) (400 mg PO): 14% | TEAE nausea, events (E) (400 mg PO): 1 | TEAE nausea, subjects (%) (400 mg PO): 14% | TEAE paresthesia, events (E) (400 mg PO): 1 | TEAE paresthesia, subjects (%) (400 mg PO): 14% | TEAE somnolence, events (E) (400 mg PO): 4 | TEAE somnolence, subjects (%) (400 mg PO): 57% | time to resolution of euphoria (400 mg PO, one subject): 17 min | Modified OAA/S score, all subjects at all times (400 mg oral): 5 | TEAE BLOOD AND LYMPHATIC SYSTEM DISORDERS, events (E) (400 mg, Total (PO+ID+IV)): 1 | TEAE BLOOD AND LYMPHATIC SYSTEM DISORDERS, subjects (%) (400 mg, Total (PO+ID+IV)): 14% | TEAE EYE DISORDERS, events (E) (400 mg, Total (PO+ID+IV)): 5 | TEAE EYE DISORDERS, subjects (%) (400 mg, Total (PO+ID+IV)): 71% | TEAE GASTROINTESTINAL DISORDERS, events (E) (400 mg, Total (PO+ID+IV)): 6 | TEAE GASTROINTESTINAL DISORDERS, subjects (%) (400 mg, Total (PO+ID+IV)): 57% | TEAE GENERAL DISORDERS AND ADMINISTRATION SITE CONDITIONS, events (E) (400 mg, Total (PO+ID+IV)): 12 | TEAE GENERAL DISORDERS AND ADMINISTRATION SITE CONDITIONS, subjects (%) (400 mg, Total (PO+ID+IV)): 71% | TEAE INFECTIONS AND INFESTATIONS, events (E) (400 mg, Total (PO+ID+IV)): 1 | TEAE INFECTIONS AND INFESTATIONS, subjects (%) (400 mg, Total (PO+ID+IV)): 14% | TEAE MUSCULOSKELETAL AND CONNECTIVE TISSUE DISORDERS, events (E) (400 mg, Total (PO+ID+IV)): 2 | TEAE MUSCULOSKELETAL AND CONNECTIVE TISSUE DISORDERS, subjects (%) (400 mg, Total (PO+ID+IV)): 29% | TEAE NERVOUS SYSTEM DISORDERS, events (E) (400 mg, Total (PO+ID+IV)): 40 | TEAE NERVOUS SYSTEM DISORDERS, subjects (%) (400 mg, Total (PO+ID+IV)): 100% | TEAE PSYCHIATRIC DISORDERS, events (E) (400 mg, Total (PO+ID+IV)): 3 | TEAE PSYCHIATRIC DISORDERS, subjects (%) (400 mg, Total (PO+ID+IV)): 43% | TEAE REPRODUCTVE SYSTEM AND BREAST DISORDERS, events (E) (400 mg, Total (PO+ID+IV)): 1 | TEAE REPRODUCTVE SYSTEM AND BREAST DISORDERS, subjects (%) (400 mg, Total (PO+ID+IV)): 14% | TEAE SKIN AND SUBCUTANEOUS TISSUE DISORDERS, events (E) (400 mg, Total (PO+ID+IV)): 2 | TEAE SKIN AND SUBCUTANEOUS TISSUE DISORDERS, subjects (%) (400 mg, Total (PO+ID+IV)): 29% | TEAE TOTAL, subjects (%) (400 mg, Total (PO+ID+IV)): 100% | TEAE burning sensation, events (E) (400 mg, Total (PO+ID+IV)): 6 | TEAE burning sensation, subjects (%) (400 mg, Total (PO+ID+IV)): 43% | TEAE catheter site pain, events (E) (400 mg, Total (PO+ID+IV)): 1 | TEAE catheter site pain, subjects (%) (400 mg, Total (PO+ID+IV)): 14% | TEAE diplopia, events (E) (400 mg, Total (PO+ID+IV)): 1 | TEAE diplopia, subjects (%) (400 mg, Total (PO+ID+IV)): 14% | TEAE disorientation, events (E) (400 mg, Total (PO+ID+IV)): 1 | TEAE disorientation, subjects (%) (400 mg, Total (PO+ID+IV)): 14% | TEAE dizziness postural, events (E) (400 mg, Total (PO+ID+IV)): 1 | TEAE dizziness postural, subjects (%) (400 mg, Total (PO+ID+IV)): 14% | TEAE dizziness, events (E) (400 mg, Total (PO+ID+IV)): 5 | TEAE dizziness, subjects (%) (400 mg, Total (PO+ID+IV)): 43% | TEAE dry mouth, events (E) (400 mg, Total (PO+ID+IV)): 1 | TEAE dry mouth, subjects (%) (400 mg, Total (PO+ID+IV)): 14% | TEAE dyspepsia, events (E) (400 mg, Total (PO+ID+IV)): 1 | TEAE dyspepsia, subjects (%) (400 mg, Total (PO+ID+IV)): 14% | TEAE ecchymosis, events (E) (400 mg, Total (PO+ID+IV)): 1 | TEAE ecchymosis, subjects (%) (400 mg, Total (PO+ID+IV)): 14% | TEAE euphoric mood, events (E) (400 mg, Total (PO+ID+IV)): 2 | TEAE euphoric mood, subjects (%) (400 mg, Total (PO+ID+IV)): 29% | TEAE fatigue, events (E) (400 mg, Total (PO+ID+IV)): 4 | TEAE fatigue, subjects (%) (400 mg, Total (PO+ID+IV)): 43% | TEAE feeling abnormal, events (E) (400 mg, Total (PO+ID+IV)): 1 | TEAE feeling abnormal, subjects (%) (400 mg, Total (PO+ID+IV)): 14% | TEAE feeling cold, events (E) (400 mg, Total (PO+ID+IV)): 1 | TEAE feeling cold, subjects (%) (400 mg, Total (PO+ID+IV)): 14% | TEAE feeling drunk, events (E) (400 mg, Total (PO+ID+IV)): 1 | TEAE feeling drunk, subjects (%) (400 mg, Total (PO+ID+IV)): 14% | TEAE flatulence, events (E) (400 mg, Total (PO+ID+IV)): 1 | TEAE flatulence, subjects (%) (400 mg, Total (PO+ID+IV)): 14% | TEAE genital pruritis male, events (E) (400 mg, Total (PO+ID+IV)): 1 | TEAE genital pruritis male, subjects (%) (400 mg, Total (PO+ID+IV)): 14% | TEAE herpes simplex, events (E) (400 mg, Total (PO+ID+IV)): 1 | TEAE herpes simplex, subjects (%) (400 mg, Total (PO+ID+IV)): 14% | TEAE lymph node pain, events (E) (400 mg, Total (PO+ID+IV)): 1 | TEAE lymph node pain, subjects (%) (400 mg, Total (PO+ID+IV)): 14% | TEAE muscle fatigue, events (E) (400 mg, Total (PO+ID+IV)): 2 | TEAE muscle fatigue, subjects (%) (400 mg, Total (PO+ID+IV)): 29% | TEAE nausea, events (E) (400 mg, Total (PO+ID+IV)): 2 | TEAE nausea, subjects (%) (400 mg, Total (PO+ID+IV)): 14% | TEAE paresthesia, events (E) (400 mg, Total (PO+ID+IV)): 10 | TEAE paresthesia, subjects (%) (400 mg, Total (PO+ID+IV)): 86% | TEAE proctalgia, events (E) (400 mg, Total (PO+ID+IV)): 1 | TEAE proctalgia, subjects (%) (400 mg, Total (PO+ID+IV)): 14% | TEAE rash, events (E) (400 mg, Total (PO+ID+IV)): 1 | TEAE rash, subjects (%) (400 mg, Total (PO+ID+IV)): 14% | TEAE sluggishness, events (E) (400 mg, Total (PO+ID+IV)): 3 | TEAE sluggishness, subjects (%) (400 mg, Total (PO+ID+IV)): 43% | TEAE somnolence, events (E) (400 mg, Total (PO+ID+IV)): 11 | TEAE somnolence, subjects (%) (400 mg, Total (PO+ID+IV)): 100% | TEAE speech disorder, events (E) (400 mg, Total (PO+ID+IV)): 6 | TEAE speech disorder, subjects (%) (400 mg, Total (PO+ID+IV)): 86% | TEAE subrapubic pain, events (E) (400 mg, Total (PO+ID+IV)): 1 | TEAE subrapubic pain, subjects (%) (400 mg, Total (PO+ID+IV)): 14% | TEAE tremor, events (E) (400 mg, Total (PO+ID+IV)): 1 | TEAE tremor, subjects (%) (400 mg, Total (PO+ID+IV)): 14% | TEAE visual disturbance, events (E) (400 mg, Total (PO+ID+IV)): 4 | TEAE visual disturbance, subjects (%) (400 mg, Total (PO+ID+IV)): 57% | TEAEs considered possibly or probably related to study drug (400 mg, all routes): Seventy | clinical laboratory results, vital signs, ECG, physical examination (400 mg, all routes): No clinically-relevant abnormalities | lowest observed Modified OAA/S score (400 mg, all routes): 4 | serious adverse events (400 mg, all routes): No subject experienced a serious adverse event; also recorded: No severe or serious TEAEs | severity of TEAEs (400 mg, all routes): mild | time to resolution of TEAEs (all but one) (400 mg, all routes, after dosing): ≤ 1 h | time by which all subjects had Modified OAA/S scores of 5 (400 mg, all routes, postdose): ≤ 1.5 h
